Laboratory results: patent US11377423B2, “Inhibitors of histone deacetylase” (The Broad Institute, Inc., priority 2012, dated 2022)

Assays:
HDAC3 = HDAC3 (Homo sapiens (Human), UniProt O15379)
HDAC1 = HDAC1 (Homo sapiens (Human), UniProt Q13547); assay: Kinetics of the inhibition of HDAC1; conditions: HDAC1 residence
Sequence of HDAC1 (Q13547 whole entry): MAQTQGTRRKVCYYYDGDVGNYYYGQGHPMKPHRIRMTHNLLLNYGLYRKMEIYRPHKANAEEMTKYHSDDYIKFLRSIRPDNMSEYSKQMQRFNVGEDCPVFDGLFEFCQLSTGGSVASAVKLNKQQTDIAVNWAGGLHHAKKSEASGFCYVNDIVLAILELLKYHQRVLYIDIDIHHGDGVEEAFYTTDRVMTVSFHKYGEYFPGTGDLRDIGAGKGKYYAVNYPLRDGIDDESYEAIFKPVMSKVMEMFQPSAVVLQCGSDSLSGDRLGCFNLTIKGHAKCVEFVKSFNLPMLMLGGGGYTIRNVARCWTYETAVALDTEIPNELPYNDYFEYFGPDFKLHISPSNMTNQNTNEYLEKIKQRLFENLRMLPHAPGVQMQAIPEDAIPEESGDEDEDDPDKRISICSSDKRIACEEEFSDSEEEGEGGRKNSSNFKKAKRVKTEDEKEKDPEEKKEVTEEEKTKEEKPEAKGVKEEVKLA
Description: HDAC1 inactivation kinetic constant was determined by curve-fitting of the plot to a first-order rate equation.

Sequence of HDAC3 (O15379 whole entry): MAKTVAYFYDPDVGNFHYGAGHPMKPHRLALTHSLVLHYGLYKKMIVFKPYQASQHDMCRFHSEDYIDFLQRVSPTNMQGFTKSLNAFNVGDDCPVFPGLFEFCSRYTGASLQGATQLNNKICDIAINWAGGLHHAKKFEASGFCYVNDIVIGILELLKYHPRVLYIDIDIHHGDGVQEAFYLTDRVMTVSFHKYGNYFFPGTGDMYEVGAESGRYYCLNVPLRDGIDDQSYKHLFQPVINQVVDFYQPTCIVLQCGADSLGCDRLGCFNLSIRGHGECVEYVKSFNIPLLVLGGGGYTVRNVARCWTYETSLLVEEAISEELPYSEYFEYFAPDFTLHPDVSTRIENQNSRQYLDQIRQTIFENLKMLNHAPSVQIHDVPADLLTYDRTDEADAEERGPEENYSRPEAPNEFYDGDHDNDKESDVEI
Sequence of HDAC3 (Q9Y618 395-489 partner): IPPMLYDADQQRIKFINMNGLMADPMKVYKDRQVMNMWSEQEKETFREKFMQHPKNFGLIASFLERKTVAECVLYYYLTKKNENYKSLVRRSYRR

Structure (SMILES): O=C(CCCCCCC(=O)Nc1ccccc1)NO [SAHA, N1-hydroxy-N8-phenyl-octanediamide, reference compound]
- T1/2 (HDAC3): <4 min
- T1/2 (HDAC1): <4 min
